The results in this text go back to paper PMC9655818, “Cytoprotective Polyketides from Sponge-Derived Fungus Lopadostoma pouzarii” (Molecules, 2022).

One series in a line: DPPH scavenging assay. Particulars: for DPPH Radicals, % of Control: compounds at 100 µM, 30 min, absorbance 520 nm, mean ± SEM. On the procedure: The compounds were dissolved in DMSO, and the solutions (120 µL) were dispensed into wells of a 96-well microplate. In all, 30 µL of the DPPH (Sigma-Aldrich, Steinheim, Germany) solution in MeOH (1.5 × 10^−4 M) was added to each well. The concentrations of the compounds in mixture were 10 and 100 µM. Pure DMSO was used as a control. The ascorbic acid was used as a positive control. The mixture was shaken and left to stand for 30 min, and the absorbance of the resulting solution was measured at 520 nm with a microplate reader MultiscanFC (ThermoLabsystems Inc., Beverly, MA, USA). The radical scavenging activity of all compounds at 100 µM was presented as a percent of the DMSO data.

The next series relates to CoCl2-treated H9c2 cells. The experiment in a line: Cardioprotective activity in CoCl2-mimic hypoxia. Particulars: MTT. Format: cell-based, rat. Here is the method:
The H9c2 cells were treated with a dH2O-solution of CoCl2 at a concentration of 500 µM for 2 h. Then, compounds at a concentration of 10 µM were added for 46 h. The viability of the H9c2 cells was measured by an MTT assay.

For series [1], the system named is human prostate cancer PC-3 cells. Briefly: Cell viability (MTT) assay, cytotoxic activity toward PC-3 cells. Format: cell-based. Particulars: 48 h; for IC50: Homo sapiens, PC-3 cells; for decrease of PC-3 cell viability: concentration of 100 µM. On the procedure:
(§1) The human cancer PC-3 cells were purchased from ATCC (Manassas, VA, USA). The rat cardiomyocytes H9c2 cells were kindly provided by Prof. Dr. Gunhild von Amsberg from Martini-Klinik Prostate Cancer Center, University Hospital Hamburg-Eppendorf, Hamburg, Germany.
(§2) The PC-3 and H9c2 cells were seeded at concentrations of 5 × 10^3 cell/well and 3 × 10^3 cell/well, respectively, and the experiments were started after 24 h. The compounds at concentrations up to 100 µM were added into the wells for 48 h, and the viability of the cells was measured by an MTT (3-(4,5-dimethylthiazol-2-yl)-2,5-diphenyltetrazolium bromide) assay, which was performed according to the manufacturer’s instructions (Sigma-Aldrich, Munich, Germany). All compounds were diisolved with DMSO so that the final concentration of DMSO in the cell culture was not more than 1%. Moreover, DMSO was used as a control.
(§3) The results were presented as a percent of the control data, and the concentration of the cell viability inhibition on 50% (IC50) was calculated.

Series [2] deals with rat normal cardiomyocytes H9c2. The experiment in a line: Cell viability (MTT) assay, cytotoxic activity toward H9c2 cells. Format: cell-based. Particulars: 48 h. On the procedure:
as §1, §2, §3

For series [3], the system named is rotenone-treated H9c2 cells. Briefly: Cardioprotective activity against rotenone-induced toxicity. The format is cell-based, rat. On the procedure: The H9c2 cells were treated with rotenone (0.1% DMSO solution) at a concentration of 10 µM for 1 h. Then, compounds at a concentration of 10 µM were added for 23 h. The viability of the H9c2 cells was measured by an MTT assay.

Take `O=C1O[C@H]([C@@H](O)CO)C(O)=C1O` [Ascorbic acid, ascorbic acid, reference compound]: the “DPPH Radicals, % of Control” value in the series “DPPH scavenging assay” was 10.5 ± 3.2 % of Control.

Take `[Cl-].[Cl-].[Co+2]` [CoCl2, cobalt chloride (II), reference compound]: the “decrease of viability of H9c2 cells by CoCl2 treatment” value with CoCl2-treated H9c2 cells (CoCl2 500 µM) turned out to be 54.1%.

As usually defined, the IC50 is the point on the concentration scale where inhibition reaches its midpoint. Low values mean greater potency in that assay, high ones weaker potency in that assay. With `COC1=C(OC)[C@@H](O)[C@](C)(O)[C@@H](C)C1=O` [Compound 1, lopouzanone A], in series [1], the IC50 was above 100 µM and the “decrease of PC-3 cell viability” value is on record as 27–32%. For the same compound, the “DPPH Radicals, % of Control” value in the series “DPPH scavenging assay” is reported as 93.8 ± 0.5 % of Control. This compound also returned an IC50 in series [2] above 100 µM.

Turning to `COC1=C(OC)C(O)C(C)(O)C(C)C1=O` (centres unmarked) [Compound 2, lopouzanone B], in series [1], the IC50 is above 100 µM and the “decrease of PC-3 cell viability” value is on record as 27–32%. For the same compound, the “DPPH Radicals, % of Control” value in the series “DPPH scavenging assay” is reported as 100.2 ± 1.0 % of Control. The IC50 in series [2] was above 100 µM.

As a reminder, the viability is the share of living cells, or the viability signal relative to a control. Consider `COC1=C(OC)C(=O)C(C)C(C)C1=O` (centres unmarked) [Compound 3, gliorosein], for which the IC50 in series [1] is 58.9 ± 1.5 µM; in series [2], above 100 µM. In “DPPH scavenging assay”, the “DPPH Radicals, % of Control” value is recorded as 86.1 ± 1.8 % of Control. In addition, in the series “DPPH scavenging assay” (concentration of 100 µM), the “decrease of the amount of DPPH radical” value is reported as 13.9%. In addition, the viability at 10 µM in the series with CoCl2-treated H9c2 cells (Rattus norvegicus, H9c2, compound at 10 µM for 46 h after CoCl2 500 µM for 2 h, read-out: increase of viability of CoCl2-treated H9c2 cells) amounted to 23.5%; in series [3] (Rattus norvegicus, H9c2, read-out: increase of viability of rotenone-treated H9c2 cells), 16.6%.

Regarding `C[C@@H]1C/C=C/C(=O)C/C=C/[C@H](O)CC(=O)O1` [Compound 4, balticolid], the IC50 in series [1] is 38.9 ± 1.9 µM; in series [2], above 100 µM. The “DPPH Radicals, % of Control” value in “DPPH scavenging assay” is 98.6 ± 3.4 % of Control.

As to `C[C@@H]1C/C=C/[C@@H](O)C/C=C/[C@@H](O)CC(=O)O1` [Compound 5, dendrodolide G], the half-inhibitory concentration (IC50) in series [1] and in series [2] was above 100 µM in each case. Besides, in series [1], the “decrease of PC-3 cell viability” value was 27–32%. The “DPPH Radicals, % of Control” value in the series “DPPH scavenging assay” is 98.9 ± 1.4 % of Control.

In the case of `C/C=C/C=C/C=C/[C@@H]1C[C@@H](O)[C@H](O)[C@H](O)[C@@H]1CO` [Compound 8, dendrodochol B], in series [1], the IC50 is above 100 µM and the “decrease of PC-3 cell viability” value was 27–32%. In addition, in the series “DPPH scavenging assay”, the “DPPH Radicals, % of Control” value was 99.4 ± 3.3 % of Control. In addition, the IC50 in series [2] is above 100 µM.

As to `C/C=C/C=C/C=C/[C@@H]1C[C@@H](OC(C)=O)[C@H](O)[C@H](O)[C@@H]1CO` [Compound 9, 1-O-acetyl dendrodochol B], the IC50 in series [1] and in series [2] was above 100 µM in each case. Also, the “decrease of PC-3 cell viability” value in series [1] is given as 27–32%. In “DPPH scavenging assay”, the “DPPH Radicals, % of Control” value was 102.7 ± 1.8 % of Control.

On to `C=C(C)[C@H]1Cc2c(ccc3c2O[C@@H]2COc4cc(OC)c(OC)cc4[C@@H]2C3=O)O1` [rotenone, reference compound], for which, in series [3] (rotenone 10 µM, MTT), the “decrease of viability of H9c2 cells by rotenone treatment” value came to 32.1%.
